Measurements taken from patent US5945401A, “Peptide analogues of the 65KD isoform of human glutamic acid decarboxylase and uses thereof” (priority 1995, dated 1999).

B1: region 161-243: region of GAD 65, residues 161-243, tested as overlapping peptides (peptide, UniProt Q05329 161-243, looked up, fragment)
chain: MHCQTTLKYAIKTGHPRYFNQLSTGLDMVGLAADWLTSTANTNMFTYEIAPVFVLLEYVTLKKMREIIGWPGGSGDGIFSPGG
modifications: tested as overlapping peptides
notes: region of GAD 65, residues 161-243, tested as overlapping peptides

Legend:
[1] = test system: T cells from transgenic NOD mice expressing the human DQβ1*0302 gene; assay: Proliferation of T cells from transgenic NOD mice expressing human DQβ1*0302; format: cell-based; settings: T cells from DQβ1*0302 transgenic NOD mice
Source text: Type 1 diabetes is associated with the HLA DQβ1*0302 allele (Nepom and Erlich, Ann. Rev. Immunol. 9:493-525, 1991). Transgenic NOD mice expressing the human DQβ1*0302 gene were constructed. […] Thus, these peptides are recognized by T cells in the context of DQβ1*0302 and are additional peptides suitable for use in the present invention.

[2] = test system: T cells from Type 1 diabetic patients and healthy controls; assay: T cell proliferation assay with GAD 65 peptides (epitope mapping in patients, controls, co-twins); format: cell-based, human; settings: patients compared with controls
Protocol: FIG. 2 is a graph illustrating the T cell proliferative responses to peptides corresponding to various regions of GAD 65. Responses to peptides (5 μg/ml) in 5-7 Type 1 diabetic patients (solid bars) and 4-5 healthy controls (hatched bars) are expressed by the number of responders (y-axis). Background counts were normally between 600 and 3000 cpm, while positive wells had to exceed 1500 and 6000 cpm respective to background counts.
A major focus of research into autoimmunity is the identification of dominant epitopes on disease-associated auto-antigens recognized by autoreactive T cells. Immunodominant regions of the antigen GAD 65 have been identified in Type 1 diabetic patients (Lohmann et al., Lancet 343:1607-08, 1994; Atkinson et al., J Clin. Invest. 94:2125-2129, 1994). Within the subject invention, a detailed T cell epitope mapping of immunodominant regions in patients with Type 1 diabetes was performed. Two regions of GAD 65 were selected for decoding, representing the regions associated with the highest frequency of T cell responses in both Type 1 diabetics (amino acid residues 473-555 and 161-243) and control subjects (amino acid residues 161-243) (FIGS. 2 and 4). Nine diabetics who responded to region 473-555 were selected for further study of their response to 18 single peptides covering this region. […]

Row | Molecule | proliferation of T cells [1] | recognition by T cells of Type 1 diabetic patients versus controls [2]
1 | GAD 65 native protein: 65 kD isoform of human glutamic acid decarboxylase, native protein | stimulated to proliferate | –
2 | B1 | – | recognized by T cells from both normals and IDDM patients
